In patent US20040265836A1, “Methods for the identification of inhibitors of C4 Long Chain Base Hydroxylase activity in plants” (priority 2003, published 2004):

Key:
sur2 mutants = conditions: cited from earlier work
[1] = test system: yeast strain PGY31 (sur2 mutant expressing the truncated form of C4-LCBH); assay: Syringomycin E sensitivity growth assay, sur2 mutant expressing truncated Arabidopsis LCBH (PGY31); type: cell-based, Saccharomyces cerevisiae; conditions: PGY31 in rich medium supplemented with galactose; 5 μl of approximately 14-fold concentrated Syringomycin E-containing fraction dried in well of 384-well plate
Excerpt: (§1) Syringomycin E is not a commercially available antibiotic and was, therefore, purified from the bacterium Pseudomonas syringae pv. syringae according to the method of (Bidwai & Zhang et al., 83 Plant Physiol 39-43 (1987)). Briefly, stationary-phase liquid cultures of P. syringae pv. syringae were extracted with acidified acetone and fractionated over an Amberlite XAD-2 (Sigma) column using a linear gradient of 0.1% trifluoroacetic acid/0.1% trifluoroacetic acid in 2-propanol. Each fraction was assayed for ability to inhibit growth of wild type (PGY8) and sur2 (PGY29) yeast strains. For the assay, 10 ml fractions were collected and 50 μl of each fraction was applied a 96-well plate and dried in a vacuum concentrator. […] of rich medium containing mid-logarithmic PGY8 or PGY29 at a cell density of 10^5 cells/ml were applied to each well. Growth was monitored after 18 hours by determining the absorbance at 600 nm. Syringomycin E-containing fractions were identified as those that inhibited growth of PGY8 but not of PGY29.
(§2) The ability of the amino-terminal truncated Arabidopsis LCBH to confer Syringomycin E sensitivity on the yeast sur2 mutant was determined as follows. […] 100 μl of yeast strains PGY8 and PGY29 in rich medium, or PGY31 in rich medium supplemented with galactose were added to each well and growth was monitored at 600 nm.

[2] = test system: yeast strain PGY8 (wild type); assay: Syringomycin E sensitivity growth assay, wild type yeast strain PGY8; type: cell-based, Saccharomyces cerevisiae; conditions: PGY8 in rich medium; 5 μl of approximately 14-fold concentrated Syringomycin E-containing fraction dried in well of 384-well plate
Excerpt: as §1, §2

[3] = test system: yeast strain PGY29 (sur2); assay: Syringomycin E sensitivity growth assay, sur2 mutant strain PGY29; type: cell-based, Saccharomyces cerevisiae; conditions: PGY29 in rich medium; 5 μl of approximately 14-fold concentrated Syringomycin E-containing fraction dried in well of 384-well plate
Excerpt: as §1, §2

Wild-type yeast strains = conditions: cited from earlier work

Syringomycin E
Growth in the presence of syringomycin E (sur2 mutants): able to grow
Growth in the presence of Syringomycin E (monitored at 600 nm) [1]: completely inhibited
Growth in the presence of Syringomycin E (monitored at 600 nm) [2]: completely inhibited
Growth in the presence of Syringomycin E (monitored at 600 nm) [3]: able to grow
Sensitivity to syringomycin E (Wild-type yeast strains): sensitive
